Data: ChEMBL document CHEMBL1201862, “PubChem BioAssay data set” (2004)
Active and inactive are the calls of the source.

Key:
Bcl-2-related protein A1 = target: T1, Bcl-2-related protein A1 (Mus musculus, UniProt Q07440); type: functional;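 note: confirmatory dose–response counterscreen on Bfl-1, used to check hits from a UBC13 polyubiquitin inhibitor campaign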
T1 sequence (Q07440 whole entry): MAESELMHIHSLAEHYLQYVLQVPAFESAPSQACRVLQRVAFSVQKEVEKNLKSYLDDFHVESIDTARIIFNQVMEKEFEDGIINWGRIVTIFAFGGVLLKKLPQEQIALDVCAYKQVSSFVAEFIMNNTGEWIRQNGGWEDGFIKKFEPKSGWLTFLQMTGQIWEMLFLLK

[1] = target: T2, Ubiquitin-conjugating enzyme E2 N (Homo sapiens, UniProt P61088); type: functional
T2 sequence (P61088 whole entry): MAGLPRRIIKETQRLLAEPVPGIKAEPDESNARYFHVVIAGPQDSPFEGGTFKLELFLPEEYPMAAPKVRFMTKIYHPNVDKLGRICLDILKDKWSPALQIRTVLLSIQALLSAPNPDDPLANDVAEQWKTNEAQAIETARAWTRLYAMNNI

[2] = target: T2, Ubiquitin-conjugating enzyme E2 N; type: functional; remark: listed apart in the source
BJ [3] = assay: BJ-TERT fibroblast viability loss – cell-based, RAS-independent, luminescence, dose response (AID 1933); type: functional; conditions: Homo sapiens
[4] = target: T3, Heat shock factor protein 1 (Mus musculus, UniProt P38532); assay: decrease of HSF1-responsive luciferase luminescence – cell-based, NIH3T3, dose retest, confirmation (AID 2382); type: functional;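 note: NIH3T3 fibroblasts with HSF1-driven luciferase reporter stressed by proteasome inhibitor MG132; luminescence from HSF1-driven luciferase expression after 8 hours of MG132 stress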
T3 sequence (P38532 whole entry): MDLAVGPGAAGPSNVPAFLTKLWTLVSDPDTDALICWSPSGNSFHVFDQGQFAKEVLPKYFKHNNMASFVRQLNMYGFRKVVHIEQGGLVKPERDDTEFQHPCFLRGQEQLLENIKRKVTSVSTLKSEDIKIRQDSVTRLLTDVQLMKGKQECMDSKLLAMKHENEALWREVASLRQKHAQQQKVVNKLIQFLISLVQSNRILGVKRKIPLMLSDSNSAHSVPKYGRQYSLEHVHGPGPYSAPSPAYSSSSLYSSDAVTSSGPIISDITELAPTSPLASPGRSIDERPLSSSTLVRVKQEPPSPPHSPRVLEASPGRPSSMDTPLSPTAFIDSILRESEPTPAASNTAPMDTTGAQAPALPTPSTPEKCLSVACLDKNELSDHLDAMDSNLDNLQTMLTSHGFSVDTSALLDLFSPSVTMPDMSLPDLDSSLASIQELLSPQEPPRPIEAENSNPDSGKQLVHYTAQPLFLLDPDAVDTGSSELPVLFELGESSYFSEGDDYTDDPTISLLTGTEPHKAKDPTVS

BJ [5] = assay: cells; type: functional, cell-based; conditions: Homo sapiens
[6] = Luminescence Cell-Based Dose Confirmation HTS to Identify Inhibitors of Platelet Dense Granule Release. [Related pubchem assays: 1663 (Primary HTS), 1678 (Summary of Project)]; type: functional
[7] = Luminescence-based counterscreen assay for KLF5 inhibitors: dose response cell-based high throughput screening assay to identify cytotoxic compounds using the IEC-6 intestinal epithelial cell line. [Related pubchem assays: 1700 (Primary screen.), 1834 (Confirmation screen.), 1858 (Summary AID.), 1905 (Counterscreen.)]; type: functional
BJ [8] = assay: BJ-TERT-LT-ST fibroblast viability loss – cell-based, RAS-independent, luminescence, dose response (AID 1935); type: functional; conditions: Homo sapiens;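 note: BJ fibroblasts immortalized with TERT plus LT and ST oncogenes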
[9] = DRD fibroblast viability loss – cell-based, non-viral oncogenic, luminescence, dose response (AID 1934); type: functional; conditions: Homo sapiens
Jurkat = assay: blockers of NF-kB activation in T cells – Jurkat, luciferase reporter, luminescence, B- and T-cell, dose response (AID 489004); type: functional, cell-based; conditions: Homo sapiens;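 note: NF-kB luciferase reporter Jurkat cells stimulated with PMA plus ionomycin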
[10] = HEK-293T viability loss, compound-treated – cell-based, uHTS hits, cytotoxicity control for B/T-cell NF-kB inhibitor project, dose response (AID 489019); type: functional;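 note: IC50 reflects cytotoxicity as loss of cell viability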
BJ [11] = assay: growth inhibition of engineered Ras-driven BJ cells – cell-based, alamar blue fluorescence, cherrypicked samples, dose response (AID 2631); type: functional; conditions: Homo sapiens;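 note: confirmatory dose-response assay in RAS-dependent BJ fibroblasts engineered with TERT, LT and ST, with cytotoxicity read by fluorescence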
[12] = reduction of Shn3 3'UTR-driven luciferase in osteoblasts – cell-based, Clone20 osteoblasts, firefly luciferase, cherry-picked, dose response (AID 624132); type: functional;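 note: firefly luciferase luminescence from reporter carrying the Shn3 3'UTR in osteoblasts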
[13] = loss of viability in HepG2 cells – cell-based, CellTiter-Glo, cherry-picked, cytotoxicity control for Shn3 inhibitor project, dose response (AID 624134); type: functional
[14] = non-specific 3'UTR reporter inhibition in Clone20-Shn3RL – cell-based, Renilla luciferase, cherry-picked, counter-screen for Shn3 inhibitor project, dose response (AID 624133); type: functional
Protein skinhead-1 = target: T4, Protein skinhead-1 (Caenorhabditis elegans, UniProt P34707); type: functional
T4 sequence (P34707 whole entry): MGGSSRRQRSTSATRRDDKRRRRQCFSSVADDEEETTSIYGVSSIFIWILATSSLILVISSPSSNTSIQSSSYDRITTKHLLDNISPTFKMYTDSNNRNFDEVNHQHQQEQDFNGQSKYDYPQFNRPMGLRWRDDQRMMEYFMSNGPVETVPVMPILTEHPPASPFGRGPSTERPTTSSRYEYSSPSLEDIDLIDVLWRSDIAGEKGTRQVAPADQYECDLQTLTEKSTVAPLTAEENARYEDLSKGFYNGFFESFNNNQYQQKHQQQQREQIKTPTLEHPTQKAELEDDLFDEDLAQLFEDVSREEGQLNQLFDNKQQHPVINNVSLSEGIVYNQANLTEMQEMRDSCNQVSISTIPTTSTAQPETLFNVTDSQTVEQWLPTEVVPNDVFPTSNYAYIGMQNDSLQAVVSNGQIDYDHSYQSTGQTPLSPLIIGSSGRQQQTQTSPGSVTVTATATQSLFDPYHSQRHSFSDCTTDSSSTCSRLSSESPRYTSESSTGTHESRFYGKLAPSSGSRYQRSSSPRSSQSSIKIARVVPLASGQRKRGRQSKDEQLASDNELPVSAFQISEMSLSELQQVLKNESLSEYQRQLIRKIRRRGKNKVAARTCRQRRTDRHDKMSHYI

[15] = A549 cell cytotoxicity, dose response, cytotoxicity control, plate reader, cherry-pick, antagonist series (AID 743412); type: functional, cell-based
[16] = toxicity toward HepG2 liver cells – cell-based, plate reader, cherry-pick, antagonist series, cytotoxicity control, dose response (AID 743416); type: functional
[17] = blockers of bursicon-stimulated LGR2 cAMP reporter – cell-based, HEK293, CRE-luciferase reporter, cherry pick, set 2, dose response (AID 743343); type: functional;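 note: transfected cells were stimulated with diluted bursicon conditioned medium after compound addition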
[18] = blockade of melanocortin 4 receptor signaling – cell-based, plate reader, cherry pick, counter-screen for LGR2 antagonist project, dose response (AID 743444); type: functional;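 note: transfected HEK 293 cells stimulated with alpha-MSH peptide; potency of inhibitors of the alpha-MSH evoked signal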
[19] = viability loss in HEK293 cells – cell-based, plate reader, cherry-picked samples, cytotoxicity control, dose response (AID 743446); type: functional
[20] = target: T5, Delta-type opioid receptor (Homo sapiens, UniProt P41143); assay: HTS Image-Based Screen for Antagonists of the DOR Receptor. [Related pubchem assays (depositor defined):AID1777, AID1785, AID1786, AID2133]; type: functional
T5 sequence (P41143 whole entry): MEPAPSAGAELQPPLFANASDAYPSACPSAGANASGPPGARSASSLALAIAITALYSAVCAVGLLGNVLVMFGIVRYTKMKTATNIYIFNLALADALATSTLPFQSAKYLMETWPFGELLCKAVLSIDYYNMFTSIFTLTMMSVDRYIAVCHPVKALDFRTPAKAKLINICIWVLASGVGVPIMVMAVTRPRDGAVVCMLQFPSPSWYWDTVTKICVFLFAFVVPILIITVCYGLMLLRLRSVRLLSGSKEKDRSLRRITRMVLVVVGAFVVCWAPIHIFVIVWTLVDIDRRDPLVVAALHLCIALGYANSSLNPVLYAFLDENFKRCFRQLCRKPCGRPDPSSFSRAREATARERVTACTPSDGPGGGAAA

Mu-type opioid receptor = Mu-type opioid receptor (Homo sapiens, UniProt P35372); assay: HTS Image-Based Screen for Agonists of the MOR Receptor. [Related pubchem assays (depositor defined):AID1777, AID1785, AID1786, AID2133]; type: functional;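 note: imaging of beta-arrestin GFP recruitment into spots after receptor activation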
Chain of Mu-type opioid receptor (P35372 whole entry): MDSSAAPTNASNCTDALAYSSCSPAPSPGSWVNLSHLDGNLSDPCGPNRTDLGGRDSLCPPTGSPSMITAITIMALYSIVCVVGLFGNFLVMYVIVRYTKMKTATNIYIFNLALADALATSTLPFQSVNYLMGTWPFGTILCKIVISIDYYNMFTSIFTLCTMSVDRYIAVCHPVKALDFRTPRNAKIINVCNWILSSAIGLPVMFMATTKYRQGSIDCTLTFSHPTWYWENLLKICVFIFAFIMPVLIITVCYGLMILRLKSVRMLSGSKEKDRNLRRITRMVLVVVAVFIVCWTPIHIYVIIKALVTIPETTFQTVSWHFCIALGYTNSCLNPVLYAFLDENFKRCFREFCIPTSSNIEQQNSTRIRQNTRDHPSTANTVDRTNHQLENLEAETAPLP

[21] = target: T5, Delta-type opioid receptor; assay: HTS Image-Based Screen for Agonists of the DOR Receptor. [Related pubchem assays (depositor defined):AID1777, AID1786, AID2133]; type: functional
[22] = target: T6, Kappa-type opioid receptor (Homo sapiens, UniProt P41145); type: functional
T6 sequence (P41145 whole entry): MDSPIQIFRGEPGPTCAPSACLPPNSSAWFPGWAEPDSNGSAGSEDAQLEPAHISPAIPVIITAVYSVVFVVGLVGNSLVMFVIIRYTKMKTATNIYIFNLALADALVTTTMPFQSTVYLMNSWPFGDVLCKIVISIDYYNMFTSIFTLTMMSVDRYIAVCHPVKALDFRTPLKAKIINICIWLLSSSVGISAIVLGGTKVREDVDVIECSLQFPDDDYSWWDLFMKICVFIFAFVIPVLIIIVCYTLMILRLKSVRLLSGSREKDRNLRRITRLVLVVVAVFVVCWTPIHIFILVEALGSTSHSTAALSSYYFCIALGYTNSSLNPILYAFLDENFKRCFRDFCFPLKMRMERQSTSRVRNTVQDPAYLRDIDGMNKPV

Beta-galactosidase = Beta-galactosidase (Escherichia coli, UniProt Q8VNN2); type: functional
Chain of Beta-galactosidase (Q8VNN2 whole entry): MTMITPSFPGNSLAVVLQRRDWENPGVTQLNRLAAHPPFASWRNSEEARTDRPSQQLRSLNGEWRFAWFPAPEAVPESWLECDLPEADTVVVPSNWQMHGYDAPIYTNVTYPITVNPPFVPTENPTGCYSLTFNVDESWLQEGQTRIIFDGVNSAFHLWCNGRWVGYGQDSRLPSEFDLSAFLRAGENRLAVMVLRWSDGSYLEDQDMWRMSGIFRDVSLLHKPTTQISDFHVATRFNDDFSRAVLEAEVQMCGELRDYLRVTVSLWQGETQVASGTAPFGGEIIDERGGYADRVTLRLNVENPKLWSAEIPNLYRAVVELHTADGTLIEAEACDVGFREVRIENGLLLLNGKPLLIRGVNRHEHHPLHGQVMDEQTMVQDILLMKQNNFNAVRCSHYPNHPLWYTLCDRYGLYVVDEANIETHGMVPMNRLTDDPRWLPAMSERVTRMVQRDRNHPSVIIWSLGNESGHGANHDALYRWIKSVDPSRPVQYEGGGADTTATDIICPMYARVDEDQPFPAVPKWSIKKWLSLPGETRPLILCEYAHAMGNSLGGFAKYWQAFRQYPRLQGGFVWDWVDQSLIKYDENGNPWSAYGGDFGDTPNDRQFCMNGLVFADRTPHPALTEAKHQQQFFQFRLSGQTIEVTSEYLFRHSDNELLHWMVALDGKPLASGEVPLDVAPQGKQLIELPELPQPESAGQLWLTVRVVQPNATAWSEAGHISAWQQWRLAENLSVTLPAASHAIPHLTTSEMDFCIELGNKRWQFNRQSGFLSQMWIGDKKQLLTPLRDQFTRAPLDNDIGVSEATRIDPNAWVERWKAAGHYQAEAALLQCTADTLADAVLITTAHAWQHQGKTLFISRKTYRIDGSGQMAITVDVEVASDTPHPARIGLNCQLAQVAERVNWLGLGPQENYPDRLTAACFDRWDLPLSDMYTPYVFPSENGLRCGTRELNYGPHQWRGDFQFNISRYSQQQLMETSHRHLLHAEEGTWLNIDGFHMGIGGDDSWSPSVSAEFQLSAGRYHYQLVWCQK

[23] = target: T6, Kappa-type opioid receptor; type: functional; remark: listed apart in the source
Vero = assay: cells; type: functional; conditions: Chlorocebus sabaeus
[24] = target: T7, RNA-editing ligase 1, mitochondrial (Trypanosoma brucei brucei, UniProt P86926); assay: inhibition of trypanosome RNA editing ligase – biochemical, fluorescence, Trypanosoma brucei, dose response (AID 1117295); type: functional
T7 sequence (P86926 whole entry): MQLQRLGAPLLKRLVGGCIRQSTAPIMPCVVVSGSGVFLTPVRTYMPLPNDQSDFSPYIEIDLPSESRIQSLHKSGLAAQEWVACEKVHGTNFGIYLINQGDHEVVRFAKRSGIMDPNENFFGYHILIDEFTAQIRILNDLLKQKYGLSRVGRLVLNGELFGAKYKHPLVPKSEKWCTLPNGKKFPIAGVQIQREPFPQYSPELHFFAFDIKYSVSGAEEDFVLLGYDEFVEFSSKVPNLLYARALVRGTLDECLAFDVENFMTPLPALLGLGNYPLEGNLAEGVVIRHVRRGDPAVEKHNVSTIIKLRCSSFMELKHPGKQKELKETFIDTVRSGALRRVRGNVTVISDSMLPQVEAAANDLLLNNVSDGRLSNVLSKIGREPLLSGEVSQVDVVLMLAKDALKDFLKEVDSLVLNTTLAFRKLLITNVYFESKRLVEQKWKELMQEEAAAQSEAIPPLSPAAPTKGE

## COc1ccccc1NC(=O)c1cc(S(=O)(=O)N2CCCCCC2)ccc1F
Bcl-2-related protein A1
  IC50: > 20 µM (inactive)
[1]
  IC50: 10.6 µM (active)
[2]
  IC50: 9.99 µM (active)

## c1ccc(-c2ccc(-c3nc(-c4ccccn4)no3)cc2)cc1
BJ [3]
  EC50: 3.64 µM (active)
[4]
  EC50: < 0.16 µM (active)
BJ [5]
  EC50: 1.69 µM (active)
[6]
  EC50: 0.189 µM (active)
[7]
  IC50: 9.09 µM (active)
BJ [8]
  EC50: 9.38 µM (inconclusive)
[9]
  EC50: 3.27 µM (active)
Jurkat
  IC50: 1.17 µM (active)
[10]
  IC50: > 80 µM (inactive)
BJ [11]
  EC50: > 133 µM (inactive)
[12]
  AC50: 3.75 µM (active)
[13]
  AC50: 5.26 µM (active)
[14]
  AC50: 32.7 µM (active)
Protein skinhead-1
  IC50: > 100 µM (inactive)
[15]
  AC50: 5.48 µM (active)
[16]
  AC50: 4.67 µM (active)
[17]
  AC50: 0.236 µM (active)
[18]
  AC50: 0.261 µM (active)
[19]
  AC50: 6.22 µM (active)

## O=C(NNC(=O)c1nn(-c2ccc(F)cc2)ccc1=O)c1ccc(C(F)(F)F)cc1
Bcl-2-related protein A1
  IC50: > 20 µM (inactive)
[1]
  IC50: 16.7 µM (active)
[2]
  IC50: 10.2 µM (active)

## COc1ccc(C[C@H]2CN3C(=NC[C@@H]3C(C)C)N2C[C@H](C)NC(=O)c2ccc(C)c(Br)c2)cc1
[20]
  IC50: > 32 µM (inactive)
Mu-type opioid receptor
  EC50: > 32 µM (inactive)
[21]
  EC50: > 32 µM (inactive)
[22]
  IC50: 6.35 µM (active)
Beta-galactosidase
  EC50: > 31.5 µM (inactive)
[23]
  IC50: 2.07 µM
[1]
  IC50: > 20 µM (inactive)
Vero
  CC50: 16.3 µM (active)
[24]
  IC50: > 96.6 µM (inactive)
